Our source for the IC50 values is US10160753B2, “Indazole compounds as IRAK4 inhibitors” (Aurigene Discovery Technologies Limited, priority 2014, dated 2018).

Structures can show the parent of a compound that is named as a salt.

The target in this assay is T1, recombinant IRAK-4 kinase (Homo sapiens, UniProt Q9NWZ3).
T1 construct: purchased Millipore, USA
T1 sequence (Q9NWZ3 1-460): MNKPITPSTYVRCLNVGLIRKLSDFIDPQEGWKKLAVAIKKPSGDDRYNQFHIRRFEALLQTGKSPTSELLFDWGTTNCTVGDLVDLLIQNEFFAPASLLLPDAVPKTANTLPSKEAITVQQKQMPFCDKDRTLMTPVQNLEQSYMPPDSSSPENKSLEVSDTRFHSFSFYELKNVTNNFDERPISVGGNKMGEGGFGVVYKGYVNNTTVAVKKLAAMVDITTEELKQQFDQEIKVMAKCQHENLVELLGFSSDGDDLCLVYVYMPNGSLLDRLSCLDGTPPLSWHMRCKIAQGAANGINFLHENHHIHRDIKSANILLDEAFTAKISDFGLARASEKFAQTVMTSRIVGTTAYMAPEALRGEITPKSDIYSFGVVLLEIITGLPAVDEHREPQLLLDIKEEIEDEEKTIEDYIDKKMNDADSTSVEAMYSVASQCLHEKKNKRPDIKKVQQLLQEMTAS
Briefly: IRAK-4 Biochemical Assay (TR-FRET). To be noted: 30 min pre-incubation, 100 nM Biotin Histone H3, 20 μM ATP, read-out: IC50 values for IRAK4 activity.
Consider `Cn1cc2cc(NC(=O)c3coc(-c4ccnc(N)c4)n3)c(N3CCC(F)CC3)cc2n1` [Example 90, 2-(2-aminopyridin-4-yl)-N-(6-(4-fluoropiperidin-1-yl)-2-methyl-2H-indazol-5-yl)oxazole-4-carboxamide hydrochloride], for which the IC50 was less than 50 nM.
With `CC(O)CNc1cccc(C(=O)Nc2cc3cn(C)nc3cc2N2CCCCC2)n1` (stereo not shown) [Example 57, 6-((2-hydroxypropyl)amino)-N-(2-methyl-6-(piperidin-1-yl)-2H-indazol-5-yl)picolinamide], the IC50 was less than 50 nM.
Consider `Cc1cc(-c2nc(C(=O)Nc3cc4cnn(C)c4cc3N3CCC(O)CC3)co2)cc(C)n1` [Example 114, 2-(2,6-dimethylpyridin-4-yl)-N-(6-(4-hydroxypiperidin-1-yl)-1-methyl-1H-indazol-5-yl)oxazole-4-carboxamide], for which the IC50 was less than 50 nM.
As for `C[C@H](O)Cn1cc(-c2nc(C(=O)Nc3cc4cnn(C)c4cc3C3CC3)co2)cn1` [Example 53, (S)—N-(6-cyclopropyl-1-methyl-1H-indazol-5-yl)-2-(1-(2-hydroxypropyl)-1H-pyrazol-4-yl)oxazole-4-carboxamide], the half-maximal inhibitory concentration (IC50) is greater than 100 nM.
With `Cn1cc2cc(NC(=O)c3cccc(N4CCC(O)C4)n3)c(N3CCCCC3)cc2n1` (stereo not shown) [Example 40, 6-(3-hydroxypyrrolidin-1-yl)-N-(2-methyl-6-(piperidin-1-yl)-2H-indazol-5-yl)picolinamide], the IC50 was less than 50 nM.
For the compound `Cc1ccc(C(=O)Nc2cc3cn(C)nc3cc2N2CCCCC2)nc1-c1cnn(C)c1` [Example 30, 5-methyl-6-(1-methyl-1H-pyrazol-4-yl)-N-(2-methyl-6-(piperidin-1-yl)-2H-indazol-5-yl)picolinamide], the IC50 is less than 50 nM.
Regarding `Cc1cnccc1-c1nc(C(=O)Nc2cc3cn(C)nc3cc2N2CCCCC2)co1` [Example 22, N-(2-methyl-6-(piperidin-1-yl)-2H-indazol-5-yl)-2-(3-methylpyridin-4-yl)oxazole-4-carboxamide], the IC50 is less than 50 nM.
In the case of `Cn1cc2cc(NC(=O)c3cccc(-c4cccnc4F)n3)c(N3CCCCC3)cc2n1` [Example 14, 2′-fluoro-N-(2-methyl-6-(piperidin-1-yl)-2H-indazol-5-yl)-[2,3′-bipyridine]-6-carboxamide], the half-inhibitory concentration (IC50) is less than 50 nM.
As for `Cc1cc(-c2nc(C(=O)Nc3cc4c(C)n(C)nc4cc3N3CCCCC3)co2)ccn1` [Example 73, N-(2,3-dimethyl-6-(piperidin-1-yl)-2H-indazol-5-yl)-2-(2-methylpyridin-4-yl)oxazole-4-carboxamide], the 50% inhibitory concentration (IC50) is less than 50 nM.
In the case of `Cc1cnccc1-c1nc(C(=O)Nc2cc3cn(C4CCCC4)nc3cc2C2CC2)co1` [Example 27, N-(2-cyclopentyl-6-cyclopropyl-2H-indazol-5-yl)-2-(3-methylpyridin-4-yl)oxazole-4-carboxamide], the half-maximal inhibitory concentration (IC50) was less than 50 nM.
`Cc1cc(-c2ccc(C(=O)Nc3cc4cn(C)nc4cc3N3CCC(O)CC3)o2)ccn1` [Example 67, N-(6-(4-hydroxypiperidin-1-yl)-2-methyl-2H-indazol-5-yl)-5-(2-methylpyridin-4-yl)furan-2-carboxamide]: the 50% inhibitory concentration (IC50) is less than 50 nM.
Turning to `COCCn1ncc2cc(NC(=O)c3coc(-c4ccnc(C)c4)n3)c(N3CCC(CO)CC3)cc21` [Example 94, N-(6-(4-(hydroxymethyl)piperidin-1-yl)-1-(2-methoxyethyl)-1H-indazol-5-yl)-2-(2-methylpyridin-4-yl)oxazole-4-carboxamide], the IC50 was less than 50 nM.
As for `Cc1cc(-c2nc(C(=O)Nc3cc4cnn(C)c4cc3N3CCCCC3)co2)ccn1` [Example 3, N-(1-methyl-6-(piperidin-1-yl)-1H-indazol-5-yl)-2-(2-methylpyridin-4-yl) oxazole-4-carboxamide], the 50% inhibitory concentration (IC50) is less than 50 nM.
For the compound `Cn1cc2cc(NC(=O)c3coc(-c4ccnc(N)c4)n3)c(N3CCC(O)CC3)cc2n1` [Example 93, 2-(2-aminopyridin-4-yl)-N-(6-(4-hydroxypiperidin-1-yl)-2-methyl-2H-indazol-5-yl)oxazole-4-carboxamide hydrochloride], the concentration for half-maximal inhibition (IC50) was less than 50 nM.
`C[C@@H](O)Cn1cc(-c2cccc(C(=O)Nc3cc4cn(C)nc4cc3N3CCCCC3)n2)cn1` [Example 43, (R)-6-(1-(2-hydroxypropyl)-1H-pyrazol-4-yl)-N-(2-methyl-6-(piperidin-1-yl)-2H-indazol-5-yl)picolinamide]: the concentration for half-maximal inhibition (IC50) was less than 50 nM.
As to `Cc1cc(-c2nc(C(=O)Nc3cc4cn(C)nc4cc3-c3cccc(F)c3)co2)ccn1` [Example 10, N-(6-(3-fluorophenyl)-2-methyl-2H-indazol-5-yl)-2-(2-methylpyridin-4-yl)oxazole-4-carboxamide], the IC50 is less than 50 nM.
Regarding `COc1ccc(-c2nc(C(=O)Nc3cc4cn(C)nc4cc3N3CCCCC3)co2)cn1` [Example 21, 2-(6-methoxypyridin-3-yl)-N-(2-methyl-6-(piperidin-1-yl)-2H-indazol-5-yl)oxazole-4-carboxamide], the 50% inhibitory concentration (IC50) was less than 50 nM.
The figure for `CNc1cc(-c2nc(C(=O)Nc3cc4cn(C)nc4cc3N3CCCCC3)co2)ccn1` [Example 122, N-(2-methyl-6-(piperidin-1-yl)-2H-indazol-5-yl)-2-(2-(methylamino)pyridin-4-yl)oxazole-4-carboxamide hydrochloride] is less than 50 nM.
For `C[C@H](O)Cn1cc(-c2cccc(C(=O)Nc3cc4cn(C)nc4cc3N3CCC(CO)CC3)n2)cn1` [Example 92, (S)—N-(6-(4-(hydroxymethyl)piperidin-1-yl)-2-methyl-2H-indazol-5-yl)-6-(1-(2-hydroxypropyl)-1H-pyrazol-4-yl)picolinamide], the 50% inhibitory concentration (IC50) was less than 50 nM.
For the compound `Cc1cc(-c2nc(C(=O)Nc3cc4cn(C)nc4cc3N3CC(O)C3)co2)ccn1` [Example 61, N-(6-(3-hydroxyazetidin-1-yl)-2-methyl-2H-indazol-5-yl)-2-(2-methylpyridin-4-yl)oxazole-4-carboxamide], the 50% inhibitory concentration (IC50) is less than 50 nM.
Consider `Cc1cc(-c2nc(C(=O)Nc3cc4cn(C)nc4cc3N3CCC(N)CC3)co2)ccn1` [Example 109, N-(6-(4-aminopiperidin-1-yl)-2-methyl-2H-indazol-5-yl)-2-(2-methylpyridin-4-yl)oxazole-4-carboxamide hydrochloride], for which the IC50 is less than 50 nM.
Then `Cn1cc2cc(NC(=O)c3coc(-c4ccnc(N)c4)n3)c(N3CCCCC3)cc2n1` [Example 86, 2-(2-aminopyridin-4-yl)-N-(2-methyl-6-(piperidin-1-yl)-2H-indazol-5-yl)oxazole-4-carboxamide hydrochloride], with less than 50 nM; and `Cc1cc(-c2nc(C(=O)Nc3cc4cn(C)nc4cc3N3CCCCC3)co2)ccn1` [Example 2, N-(2-methyl-6-(piperidin-1-yl)-2H-indazol-5-yl)-2-(2-methylpyridin-4-yl) oxazole-4-carboxamide], with less than 50 nM; and `Cc1cc(-c2nc(C(=O)Nc3cc4cn(C)nc4cc3N3CCC(O)CC3)co2)ccn1` [Example 58, N-(6-(4-hydroxypiperidin-1-yl)-2-methyl-2H-indazol-5-yl)-2-(2-methylpyridin-4-yl)oxazole-4-carboxamide], with less than 50 nM.
Consider `Cc1cc(-c2nc(C(=O)Nc3cc4c(C)nn(C)c4cc3N3CCCCC3)co2)ccn1` [Example 74, N-(1,3-dimethyl-6-(piperidin-1-yl)-1H-indazol-5-yl)-2-(2-methylpyridin-4-yl)oxazole-4-carboxamide], for which the concentration for half-maximal inhibition (IC50) is less than 50 nM.
